The structures appear in SMILES notation. “And” between values parts separate entries of the source, which are not always exact repeats. Equal entries are not always repeated.

The first data set deals with P. pacificus. Briefly: Pristionchus pacificus dose-response experiments. In kind it is in vivo. Particulars: larvae, animals reaching L3 stage or older counted. The procedure:
Dose-response assays were carried out exactly as those described above for the C. elegans L1 dose-response experiments. However, the compounds of the application-induced phenotypes in P. pacificus, even at the highest concentrations, were a combination of lethality and larval arrest. Therefore, for the Pristionchus dose-response assays, the number of animals that reached the L3 stage or older was quantified, as opposed to the number of viable worms. The arrested animals appeared very sick, and would likely die before reaching reproductive adulthood. Therefore, this arrested phenotype was considered to be practically analogous to lethality. The “relative viability” values were calculated the same way as for the C. elegans dose-response experiments, and were averaged across at least three biological replicates. LC50 values were calculated in the same manner as for the C. elegans dose-response assays.
By LC50 is commonly meant the concentration lethal to half of the exposed cells or organisms. Regarding `Cc1csc2nc(-c3ccccc3)cn12` [Compound Ie], the LC50 was 45.5 µM.

With `Clc1ccc(-c2cn3ccsc3n2)cc1` [Ia], the LC50 turned out to be 6.1 µM.

As for `Fc1ccc(-c2cn3ccsc3n2)cc1` [Ib], the 50% lethal concentration (LC50) turned out to be 14.7 µM.

For the next data set, the system named is C. oncophora. The experiment in a line: whole plant or invertebrate. It is filed as in vivo. The note with it: Cooperia oncophora, 48 h; eggs of ivermectin-resistant strain, 2 days, egg hatch. The text has this: Fresh cattle faeces containing eggs of an ivermectin-resistant strain of C. oncophora were kindly supplied by Dr. Doug Colwell and Dawn Gray (Lethbridge Research Station, Agriculture and Agri-Food Canada). Established methods were used to carry out the experimental cattle infections^60, and these methods were approved by the Lethbridge AAFC Animal Care committee and conducted under animal use license ACC1407. Cattle faeces containing C. oncophora eggs were stored anaerobically at room temperature for a maximum of 6 days before use. Eggs were isolated from faeces using a standard saturated salt flotation method^61 immediately before the egg hatch assay. 80 μl of distilled and deionized water was added to each well of a 96-well culture plate, and then 1 μl of chemical at the appropriate concentration in DMSO was added to each well using a multichannel pipette. Approximately 50 eggs were added per well in 20 μl of water for a final volume of 100 μl in each well, the final DMSO concentration was 1% (v/v). The eggs were incubated in the chemicals for 2 days at room temperature, after which hatching was stopped by the addition of 1 μl iodine tincture to each well. […] “Relative viability” values were calculated by dividing the fraction of eggs that hatched at each concentration by the fraction of eggs that hatched in the corresponding DMSO control wells. Two biological replicates were performed for each dose-response experiment, and the relative viability values were averaged across the biological replicates. The average hatch rate for the DMSO control wells was greater than 93% for both biological replicates. LC50 values were calculated in the same manner as for the C. elegans dose-response assays
Regarding `Cc1csc2nc(-c3ccccc3)cn12` [Compound Ie], the median lethal concentration (LC50) is 0.9 µM.

As to `Clc1ccc(-c2cn3ccsc3n2)cc1` [Ia], the LC50 is 3.7 µM.

Compound `Fc1ccc(-c2cn3ccsc3n2)cc1` [Ib] had a median lethal concentration (LC50) of 5.4 µM.

System in a further data set: not listed separately
Briefly: HEK cell culture and dose-response experiments. It is filed as cell-based, Human. The note with it: human, HEK293 cells, non-target system, CellTiter-Blue, read-out: HEK Cells LC50. The procedure: HEK293 cells were seeded into 96-well plates, at 5000 cells per well, in 100 μL total volumes of DMEM/10% FBS/1% PS media and grown overnight at 37° C. in the presence of 5% CO2. Compounds (0.5 μL volumes from appropriate source plates) were then added to cells, and growth was continued for an additional 48 hours. Following growth, 10 μL of CellTiter-Blue Viability reagent (Promega) was added to each well, and plates were incubated for an additional 4 hours at 37° C. in the presence of 5% CO2. Fluorescence measurements (560 nm excitation/590 nm emission) were then performed using a CLARIOstar Plate Reader (BMG Labtech) to quantify reagent reduction and estimate cell viability.
For the compound `Cc1csc2nc(-c3ccccc3)cn12` [Compound Ie], the CC50 at 48 h is more than 100 µM.

As to `Clc1ccc(-c2cn3ccsc3n2)cc1` [Ia], the CC50 at 48 h is more than 100 µM.

With `Fc1ccc(-c2cn3ccsc3n2)cc1` [Ib], the CC50 at 48 h is more than 100 µM.

For another data set, the system named is C. elegans. The experiment in a line: C. elegans viability at a single concentration (Table 3). It is filed as in vivo. The note with it: Caenorhabditis elegans; 100 μM. The procedure:
(§1) Forty microliters of an HB101 bacterial suspension in liquid NGM (see above) was added to each well of a 96-well flat-bottom culture plate, after which approximately 25 synchronized L1 worms, in 10 μl of M9 buffer (see ref. 59 for the recipe), were added to each well. The synchronized L1 worms were obtained from an embryo preparation performed the previous day (see ref. 59 for the protocol). For the L1 assays, 0.5 μl of chemical solution (or DMSO alone) was immediately added to the wells using a multichannel pipette, the final DMSO concentration is 1% (v/v). The worms were incubated for 3 days at 20° C. and the number of viable animals was counted. […] Although the counts were performed after 3 days of incubation in the chemical, it was noted that the L1s were dead within 24 hours of the addition of the chemicals. For the L2/L3 assays, the worms were incubated in the absence of chemical for 1 day at 20° C. until they reached the L2/L3 stage, at which point chemical was added as described above. The worms were then allowed to incubate for 2 days at 20° C. and the number of viable animals was counted as described for the L1 assay. For the L4 assays, the worms were incubated for 2 days at 20° C. before the addition of chemicals. The L4-stage worms were then incubated in chemical for an additional day before quantifying the number of viable animals. The adult assays were performed the same way as the L4 assays, however HT115 E. coli carrying the empty dsRNA expressing vector L4440 was used in place of HB101 and the worms were cultured at 25° C. as opposed to 20° C. for the entirety of the experiment. The HT115 suspension was made by concentrating a bacterial culture, with an OD600 of ˜ 0.8, five-fold with liquid NGM containing 1 mM IPTG and 100 μg/ml carbenicillin. The HT115 cells were induced with 1 mM IPTG for one hour before concentrating with NGM.
The ability of exemplary compounds of the application to kill C. elegans at 100 μM (except for compound If which was tested at 50 μM) and to affect the mobility of M. chitwoodi at 45 μM was tested as described above for M. incognita infective juveniles. Percent mobility was measured after 2 days of chronic exposure to test compounds (Table 3).
Broadly, the viability is a per cent measure of how many cells are alive, often set against a control. As to `Cc1csc2nc(-c3ccccc3)cn12` [Compound Ie], the viability at 100 µM came out at 100%.

In turn, `Clc1ccc(-c2cn3ccsc3n2)cc1` [Ia] came in with a viability at 100 µM of 0%.

As for `Fc1ccc(-c2cn3ccsc3n2)cc1` [Ib], the viability at 100 µM turned out to be 0%.

The test system of a further data set is C. elegans. Briefly: C. elegans minimum lethal concentration dose-response. It is filed as in vivo, Caenorhabditis elegans. Particulars: Caenorhabditis elegans, C. elegans viability. The procedure:
as §1
Compounds Ia to Im, dose-response assays were performed with C. elegans. 8 of the compounds killed C. elegans with minimum lethal concentrations less than or equal to 100 μM (Table 6). Compounds Ia, Ic, and Ij were the most potently lethal nematicides in this assay, having minimum lethal concentrations of 6.25 μM and below. The positive control nematicide tioxazafen killed nematodes at 3.13 μM and above.
What is called minimal effective concentration is the lowest level tested that produced the effect sought. A low value points to greater potency. Turning to `Cc1csc2nc(-c3ccccc3)cn12` [Compound Ie], the minimal effective concentration is > 100 µM and > 21.4 µg/mL.

In turn, `Clc1ccc(-c2cn3ccsc3n2)cc1` [Ia] yielded a minimal effective concentration of 1.5 µg/mL.

Consider `Fc1ccc(-c2cn3ccsc3n2)cc1` [Ib], for which the minimal effective concentration was 25 µM and 5.5 µg/mL.

Source of the values: US20220264883A1, “IMIDAZOTHIAZOLE COMPOUNDS AND METHODS FOR TREATING PLANT NEMATODE INFECTIONS” (The Governing Council of the University of Toronto, priority 2019, published 2022).
